Tests used:
PfSR10 [1] = molecular target: T1, PfSR10 (Plasmodium falciparum, UniProt Q8I5P8); experiment: FlAsH-BRET assay of PfSR10 extracellular conformational changes; format: cell-based; settings: for ECL3 movement relative to the PfSR10 N-terminus, S6 sensor: S6 (site 6) sensor site; for ECL1 movement relative to the PfSR10 N-terminus: concentration-dependent
Experimental: To characterize the binding properties of different ligands (CQ, DHA, PIP-TT, PQ, bradykinin or des-Arg9-bradykinin) to PfSR10, a FlAsH BRET assay was performed as previously described.[29]^,[32]^,[49] We seeded HEK293 cells or COS-7 cells in 6-well plate were transfected with PfSR10 FlAsH BRET sensors (S1 to S6 as indicated in Figure 4B) and incubated for 48 h at 37°C in 5% CO2. The overexpressed PfSR10 sensors cells were washed with FlAsH BRET buffer (25 mM HEPES, 1 mM CaCl2, 140 mM NaCl, 2.7 mM KCl, 0.9 mM MgCl2, 0.37 mM NaH2PO4, 5.5 mM D-glucose, 12 mM NaHCO3) and incubated with 2.5 μM FlLAsH EDT2 (pre-diluted in FLAsH BRET buffer) for 40min at 37°C in 5% CO2. The cells were washed twice, resuspended with FlAsH BRET buffer, and seeded into a 96-well plate at a density of 5x10^4 per well. After adding increasing concentrations of ligand (CQ, DHA, PIP-TT, PQ, bradykinin or des-Arg9-bradykinin) together with luciferase substrate coelenterazine-h (5 μM), the BRET signals between Nluc (440-480 nm) and FlAsH fluorescent moiety (525-585 nm) emissions were examined by a Mithras LB 940 Multimode Microplate Reader.

PfSR10 [2] = molecular target: T1, PfSR10; experiment: Gi1-Gγ dissociation BRET assay in PfSR10-overexpressing HEK293 cells; format: cell-based; settings: for Gi1 coupling with PfSR10 (in words): G protein dissociation assay
Excerpt: (§1) To characterize the G protein signalling properties of PfSR10, G protein BRET probes were generated according to previous publication.[50] The Gqo BRET probes were generated by replacing the six amino acids of the C- terminus of Gq -RlucII with those from GoA1, creating a chimeric Gqo-RlucII subunit.[51] HEK293 cells or COS-7 cells were co-transfected with PfSR10 and various G protein probes (Gi, Gq and Gqo). Forty-eight hours post-transfection, cells were washed twice with HBSS, resuspended with HBSS buffer, and seeded into a 96-well plate at a density of 5x10^4 per well. After adding increasing concentrations of ligand (CQ, DHA, PIP-TT, PQ, Bradykinin, des-Arg9-bradykinin, bradykinin-Arg-FITC, FITC-bradykinin) together with luciferase substrate coelenterazine 400a (5 μM, Cayman), the BRET signals between […] (440-480 nm) and GFP2 (510 nm) emissions were examined by a Mithras LB 940 Multimode Microplate Reader (Berthold Technologies). The BRET signal was calculated as the ratio of the GFP2 emission to Nluc emission.

PfSR10 [3] = molecular target: T1, PfSR10; experiment: GloSensor-cAMP assay, inhibition of forskolin-induced cAMP in PfSR10-overexpressing HEK293 cells; format: cell-based
Experimental: (§2) To examine the constitutive activity of PfSR10, we transfected HEK293 cells with different concentrations of the receptor, including PfSR10, ADGRG2, ADGRG3. For measuring the anti-malarial drugs, bradykinin or des-Arg9-bradykinin-induced inhibition of forskolin-stimulated cAMP level in HEK293 cells or COS-7 cells, the receptor encoding plasmid (PfSR10 or its mutants) or empty plasmid (pcDNA3.1) was co-transfected with the GloSensor plasmid and incubated in an incubator at 37°C with 5% CO2 for 24 h. The transfected cells were then inoculated on 96-well plates (at a density of 4 × 10^4 / well) and incubated in incubators under the same conditions for another 24 hours. Cells were precultured with serum-free medium (Gibco) containing 5% DILUTED GloSensor™cAMP reagent Reserve solution (Progema) for 2 h. The base cAMP signal was directly measured using a multimode tablet reader (PerkinElmer Envision). At the same time, the cAMP signal induced by DHA, PIP-TT, PQ, CQ bradykinin or des-Arg9-bradykinin was detected after adding agonists into the corresponding Wells. Finally, the s-shaped dose response function in GraphPad Prism 7.0 was used to analyze the data.

Plasmodium falciparum [4] = experiment: cAMP ELISA in isolated parasites at trophozoite stage stimulated with Fsk; format: cell-based; settings: 10 μM DHA, 3 μM Fsk, compared with untreated group
Experimental: For determination of the cAMP levels in the Plasmodium falciparum, P. falciparum-infected human erythrocyte s at trophozoite stage, synchronized with sorbitol as previously described.[47] The P. falciparum-infected cells were subject to the 10 μM DHA treatment or not for 1 h after synchronization in the presence of 3 μM of Fsk. P. falciparum parasites were isolated at the trophozoite stage.[48] P. falciparum parasites were washed twice with PBS and resuspended at a concentration of 5×10^6 cells/ml^-1 in the same buffer and incubated for 15 min with 10 μM DHA in the presence 300 nM IBMX to prevent cAMP degradation. After treatment, P. falciparum parasites were disrupted repeatedly by freeze-thaw, sedimented by centrifugation at 600 g for 10 min at 4°C and the supernatant was collected and subjected to cAMP measurement using cAMP ELISA Kit (R&D systems) according to manufacturer’s instructions.

Plasmodium falciparum [5] = experiment: IP3 ELISA in isolated parasites at trophozoite stage; format: cell-based; settings: 10 μM DHA, 1 h, compared with untreated group
Experimental: To measure the IP3 levels in the Plasmodium falciparum. P. falciparum parasites were collected as described above. In brief, after 1 h-treatment 1h with 10 μM of DHA, P. falciparum parasites were isolated at the trophozoite stage and washed twice with PBS. Then P. falciparum parasites were disrupted repeatedly by freeze-thaw, sedimented by centrifugation at 600 g for 10 min at 4°C. The supernatant was collected and IP3 levels were determined using IP3 ELISA Kit (Hengyuan Biotechnology, Shanghai) according to manufacturer’s instructions.

PySR10 = PySR10 (Plasmodium yoelii, UniProt V7PQD6); experiment: GloSensor-cAMP assay in HEK293 cells overexpressing PySR10; format: cell-based
Sequence of PySR10 (V7PQD6 entry or part of it): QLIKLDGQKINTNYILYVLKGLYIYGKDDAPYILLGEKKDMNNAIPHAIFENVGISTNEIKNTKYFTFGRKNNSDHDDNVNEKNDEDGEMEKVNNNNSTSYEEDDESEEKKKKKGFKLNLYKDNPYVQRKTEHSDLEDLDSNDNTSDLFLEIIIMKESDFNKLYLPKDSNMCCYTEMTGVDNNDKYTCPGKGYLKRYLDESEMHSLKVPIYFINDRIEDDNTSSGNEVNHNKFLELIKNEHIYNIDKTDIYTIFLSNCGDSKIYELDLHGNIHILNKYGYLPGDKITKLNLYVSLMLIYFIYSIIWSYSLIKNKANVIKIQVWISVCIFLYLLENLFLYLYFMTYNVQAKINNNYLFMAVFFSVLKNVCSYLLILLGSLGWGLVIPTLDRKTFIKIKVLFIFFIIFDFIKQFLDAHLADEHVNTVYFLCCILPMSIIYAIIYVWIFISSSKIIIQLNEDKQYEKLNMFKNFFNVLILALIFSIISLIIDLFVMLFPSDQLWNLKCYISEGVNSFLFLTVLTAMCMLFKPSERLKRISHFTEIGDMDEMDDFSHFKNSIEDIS

PfSR10 [6] = molecular target: T1, PfSR10; experiment: Gq-Gγ dissociation BRET assay in PfSR10-overexpressing HEK293 cells; format: cell-based
Excerpt: as §1

PbSR10 [7] = molecular target: T2, PbSR10 (Plasmodium berghei, UniProt A0A509AUP3); experiment: Gi protein trimer dissociation assay in HEK293 cells overexpressing PbSR10; format: cell-based
T2 sequence (A0A509AUP3 entry or part of it): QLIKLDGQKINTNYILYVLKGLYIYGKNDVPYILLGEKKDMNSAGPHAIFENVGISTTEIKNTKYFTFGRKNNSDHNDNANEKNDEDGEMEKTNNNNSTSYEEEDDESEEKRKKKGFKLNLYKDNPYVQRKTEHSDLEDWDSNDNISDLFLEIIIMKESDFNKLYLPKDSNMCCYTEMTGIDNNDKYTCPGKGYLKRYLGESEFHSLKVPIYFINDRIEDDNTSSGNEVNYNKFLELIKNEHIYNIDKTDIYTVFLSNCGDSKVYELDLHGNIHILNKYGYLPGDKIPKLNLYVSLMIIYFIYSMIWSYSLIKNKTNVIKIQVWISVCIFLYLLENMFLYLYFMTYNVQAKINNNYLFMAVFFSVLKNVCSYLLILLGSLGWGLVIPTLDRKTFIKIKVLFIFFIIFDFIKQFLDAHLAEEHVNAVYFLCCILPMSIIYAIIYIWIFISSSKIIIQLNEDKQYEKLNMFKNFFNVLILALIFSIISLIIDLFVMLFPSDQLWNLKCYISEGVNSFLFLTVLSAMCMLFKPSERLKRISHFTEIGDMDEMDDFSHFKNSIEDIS

SR10 [8] = experiment: GloSensor-cAMP assay in HEK293 cells overexpressing P. knowlesi SR10; format: cell-based; settings: one of the two other Plasmodium species
PcSR10 = PcSR10 (Plasmodium chabaudi, UniProt A0A4V0KCI5); experiment: GloSensor-cAMP assay in HEK293 cells overexpressing PcSR10; format: cell-based
Sequence of PcSR10 (A0A4V0KCI5 entry or part of it): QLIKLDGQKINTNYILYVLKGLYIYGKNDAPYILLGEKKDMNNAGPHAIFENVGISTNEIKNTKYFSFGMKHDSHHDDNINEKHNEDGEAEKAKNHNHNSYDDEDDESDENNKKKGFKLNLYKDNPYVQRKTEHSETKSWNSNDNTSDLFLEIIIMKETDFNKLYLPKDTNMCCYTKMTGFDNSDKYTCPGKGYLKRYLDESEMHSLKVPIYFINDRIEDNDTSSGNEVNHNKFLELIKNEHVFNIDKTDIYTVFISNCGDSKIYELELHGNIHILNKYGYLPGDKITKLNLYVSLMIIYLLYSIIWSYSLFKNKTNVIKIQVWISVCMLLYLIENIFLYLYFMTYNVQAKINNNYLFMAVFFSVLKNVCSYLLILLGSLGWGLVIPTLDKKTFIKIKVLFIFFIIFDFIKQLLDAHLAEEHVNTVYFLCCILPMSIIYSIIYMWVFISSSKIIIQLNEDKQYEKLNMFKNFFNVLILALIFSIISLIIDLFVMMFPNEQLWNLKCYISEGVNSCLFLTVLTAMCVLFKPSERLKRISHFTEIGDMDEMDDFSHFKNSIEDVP

PbSR10 [9] = molecular target: T2, PbSR10; experiment: GloSensor-cAMP assay in HEK293 cells overexpressing PbSR10; format: cell-based
SR10 [10] = experiment: GloSensor-cAMP assay in HEK293 cells overexpressing P. vivax SR10; format: cell-based; settings: one of the two other Plasmodium species
PfSR10 mutants = experiment: GloSensor-cAMP assay with site-directed PfSR10 mutants; format: cell-based, Plasmodium falciparum
Experimental: as §2

[11] = HEK293 cells overexpressing PfSR10, mean ± SEM

T1 sequence (Q8I5P8 entry or part of it): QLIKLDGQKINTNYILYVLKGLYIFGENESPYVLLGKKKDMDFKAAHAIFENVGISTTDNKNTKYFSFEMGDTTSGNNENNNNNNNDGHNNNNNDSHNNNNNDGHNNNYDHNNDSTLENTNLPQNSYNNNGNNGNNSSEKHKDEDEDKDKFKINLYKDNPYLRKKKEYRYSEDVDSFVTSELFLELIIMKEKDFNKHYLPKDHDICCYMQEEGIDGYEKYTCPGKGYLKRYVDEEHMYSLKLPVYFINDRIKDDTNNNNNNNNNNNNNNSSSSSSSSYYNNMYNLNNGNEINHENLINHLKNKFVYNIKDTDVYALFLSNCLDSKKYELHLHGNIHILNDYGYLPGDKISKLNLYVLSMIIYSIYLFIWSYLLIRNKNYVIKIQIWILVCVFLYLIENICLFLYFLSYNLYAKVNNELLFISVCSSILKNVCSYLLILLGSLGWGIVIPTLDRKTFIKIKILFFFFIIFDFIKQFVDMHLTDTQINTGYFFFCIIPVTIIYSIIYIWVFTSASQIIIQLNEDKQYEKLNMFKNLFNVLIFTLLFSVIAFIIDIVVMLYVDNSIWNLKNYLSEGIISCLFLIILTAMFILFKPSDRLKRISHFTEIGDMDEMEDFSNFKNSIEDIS

O=C1C(O)=C([C@H]2CC[C@H](c3ccc(Cl)cc3)CC2)C(=O)c2ccccc21 [ATO, atovaquone] was tested, and the “extracellular conformational changes in PfSR10” value (PfSR10 [1]) was “did not induce detectable extracellular conformational changes”.
With CCN(CC)CCCC(C)Nc1ccnc2cc(Cl)ccc12 (stereo not shown) [CQ, chloroquine] the EC50 (PfSR10 [2]) was 0.75 ± 0.06 nM, the “Gi1 coupling with PfSR10 (in words)” value (PfSR10 [2]) was “promoted Gi1 coupling with PfSR10” and the “ECL3 movement relative to the PfSR10 N-terminus, S6 sensor” value (PfSR10 [1]) was “separation of ECL3 from the PfSR10 N-terminus”. For the same compound, the “ECL1 movement relative to the PfSR10 N-terminus” value (PfSR10 [1]) was “inward movement of ECL1 toward the PfSR10 N-terminus”, the EC50 (PfSR10 [3]) was 36.6 ± 2.97 nM and the “cAMP inhibition Emax” value (PfSR10 [3]; [11]) was 0.958 ± 0.03 × 10^3.
C[C@H]1[C@@H](O)O[C@@H]2O[C@@]3(C)CC[C@H]4[C@H](C)CC[C@@H]1[C@@]24OO3 [DHA, dihydroartemisinin] was tested, and the “Fsk-stimulated cAMP in the malaria parasite” value (Plasmodium falciparum [4]) was “inhibited”, the “IP3 concentration in the malaria parasite” value (Plasmodium falciparum [5]) was “significantly increased” and the EC50 (PySR10) was 36.6 ± 6.78 nM. The EC50 (PfSR10 [6]) was 2 ± 0.1 nM, the “Gi dissociation downstream of PbSR10” value (PbSR10 [7]) was “promoted Gi dissociation” and the “cAMP response via SR10 of P. knowlesi” value (SR10 [8]) was “no response”. For the same compound, the EC50 (PcSR10) was 37.6 ± 15.5 nM, the EC50 (PbSR10 [9]) was 12.3 ± 4.75 nM and the “cAMP response via SR10 of P. vivax” value (SR10 [10]) was “no response”. For the same compound, the “effect of mutation on DHA potency, PfSR10 C454F” value (PfSR10 mutants; mutant C454F vs wild type) was “minimal effects”, the “effect of mutation on DHA-induced cAMP inhibition, PfSR10 L587M” value (PfSR10 mutants; mutant L587M vs wild type) was “significantly impaired” and the “effect of mutation on DHA-induced cAMP inhibition, PfSR10 N595S” value (PfSR10 mutants; mutant N595S vs wild type) was “significantly impaired”. The “effect of mutation on DHA-induced cAMP inhibition, PfSR10 T513A” value (PfSR10 mutants; mutant T513A vs wild type) was “significantly impaired”, the “effect of mutation on DHA potency, PfSR10 T528S” value (PfSR10 mutants; mutant T528S vs wild type) was “minimal effects” and the “ECL1 movement relative to the PfSR10 N-terminus” value (PfSR10 [1]) was “inward movement of ECL1 toward the PfSR10 N-terminus”. For the same compound, the EC50 (PfSR10 [3]) was 3.94 ± 1.6 nM and the “cAMP inhibition Emax” value (PfSR10 [3]; [11]) was 1.136 ± 0.06 × 10^3.
With Clc1ccc2c(N3CCN(CCCN4CCN(c5ccnc6cc(Cl)ccc56)CC4)CC3)ccnc2c1.O=P(O)(O)O [PIP-TT, piperaquine-tetraphosphate-tetrahydrate] the “Gi1 coupling with PfSR10 (in words)” value (PfSR10 [2]) was “promoted Gi1 coupling with PfSR10”, the “Gi1-dissociation Emax” value (PfSR10 [2]; [11]) was -13.00 ± 1.00 × 10^-3 and the EC50 (PfSR10 [2]; HEK293 cells overexpressing PfSR10, mean ± SEM, read-out: Gi1-dissociation EC50) was 9.18 ± 5.23 nM. For the same compound, the “ECL3 movement relative to the PfSR10 N-terminus, S6 sensor” value (PfSR10 [1]) was “separation of ECL3 from the PfSR10 N-terminus”, the “ECL1 movement relative to the PfSR10 N-terminus” value (PfSR10 [1]) was “inward movement of ECL1 toward the PfSR10 N-terminus” and the “cAMP inhibition Emax” value (PfSR10 [3]; [11]) was 1.070 ± 0.09 × 10^3. The EC50 (PfSR10 [3]; inhibition of Fsk-induced cAMP elevation, HEK293 cells overexpressing PfSR10, mean ± SEM, n=3, read-out: cAMP inhibition EC50) was 0.4 ± 0.12 nM.

— publication PMC12639566, “Identification of antimalarial drugs and bradykinin as ligands of the Plasmodium membrane protein PfSR10” (iScience, 2025)
